Assay [1] relates to MX1. The assay is described as follows: Inhibition of cell proliferation (GI50), CellTiter 96 AQueous One Solution. Format: cell-based. As to conditions: Homo sapiens; MX1 cells, 48 h incubation; dose for 50% inhibition of cell proliferation.
For assay [2], the system named is T-47D. The description is as above. It is filed as cell-based. As to conditions: Homo sapiens, T47D; T-47D cells, 48 h incubation; dose for 50% inhibition of cell proliferation. How it is done:
T-47D and SKBr-3 cells were grown and harvested as in Example 72. An aliquot of 90 μL of cells (2.2×10^4 cells/mL) was added to a well of a 96-well microtiter plate containing 10 μl of a 10% DMSO in RPMI-1640 media solution containing 1 nM to […] of 3-(3-amino-4-chloro-phenyl)-5-(3-chlorothiophen-2-yl)-[1,2,4]-oxadiazole (0.1 nM to 10 μM final). An aliquot of 90 μL of cells was added to a well of a 96-well microtiter plate containing 10 μL of a 10% DMSO in RPMI-1640 media solution without compound as the control sample for maximal cell proliferation (AMax). The samples were mixed by agitation and then incubated at 37° C. for 48 h in a 5% CO2-95% humidity incubator. After incubation, the samples were removed from the incubator and 20 μL of CellTiter 96 AQUEOUS One Solution Cell Proliferation™ reagent (Promega) was added. The samples were mixed by agitation and incubated at 37° C. for 2–4 h in a 5% CO2-95% humidity incubator. Using an absorbance plate reader (Model 1420 Wallac Instruments), an initial reading (T=0) was made approximately 1–2 min after addition of the solution, employing absorbance at 490 nm. This determines the possible background absorbance of the test compounds. No absorbance for 3-(3-amino-4-chloro-phenyl)-5-(3-chlorothiophen-2-yl)-[1,2,4]-oxadiazole was found at 490 nm. After the 2–4 h incubation, the samples were read for absorbance as above (ATest).
Baseline for GI50 (dose for 50% inhibition of cell proliferation) of initial cell numbers were determined by adding an aliquot of 90 μL of cells or 90 μL of media, respectively, to wells of a 96-well microtiter plate containing 10 μL of a 10% DMSO in RPMI-1640 media solution. The samples were mixed by agitation and then incubated at 37° C. for 0.5 h in a 5% CO2-95% humidity incubator. After incubation, the samples were removed from the incubator and 20 μL of CellTiter 96 AQUEOUS One Solution Cell Proliferation™ reagent (Promega) was added. The samples were mixed by agitation and incubated at 37° C. for 2–4 h in a 5% CO2-95% humidity incubator. Absorbance was read as above, (AStart) defining absorbance for initial cell number used as baseline in GI50 determinations.
Calculation: GI50 (dose for 50% inhibition of cell proliferation) is the concentration where [(ATest−AStart)/(AMax−Astart)]=0.5.

Assay [3] concerns T-47D. The assay is described as follows: Caspase cascade activation assay (N-(Ac-DEVD)-N'-ethoxycarbonyl-R110 fluorogenic substrate) in solid tumor cells. It is filed as cell-based, Human. As to conditions: T-47D cells, 48 h incubation; for pEC50: Homo sapiens, T47D, sigmoidal dose-response, read-out: Caspase potency EC50; for Caspase activity (Ratio): ratio of net RFU of test compound to that of control samples. Here is the method:
Human breast cancer cell lines T-47D and ZR-75-1 were grown according to media component mixtures designated by American Type Culture Collection+10% FCS (Invitrogen Corporation), in a 5% CO2-95% humidity incubator at 37° C. T-47D and ZR-75-1 cells were maintained at a cell density between 50 and 80% confluency at a cell density of 0.1 to 0.6×10^6 cells/mL. Cells were harvested at 600×g and resuspended at 0.65×10^6 cells/mL into appropriate media+10% FCS. An aliquot of 45 μl of cells was added to a well of a 96-well microtiter plate containing 2.5 μl of a 10% DMSO in RPMI-1640 media solution containing 0.16 to 100 μM of 3-(3-amino-4-chloro-phenyl)-5-(3-chlorothiophen-2-yl)-[1,2,4]-oxadiazole or other test compound (0.016 to 10 μM final). An aliquot of 22.5 μL of cells was added to a well of a 384-well microtiter plate containing 2.5 μl of a 10% DMSO in RPMI-1640 media solution without test compound as the control sample. The samples were mixed by agitation and then incubated at 37° C. for 48 h in a 5% CO2-95% humidity incubator. After incubation, the samples were removed from the incubator and 25 μL of a solution containing 14 μM of N-(Ac-DEVD)-N′-ethoxycarbonyl-R110 (SEQ ID No.:1) fluorogenic substrate (Maxim, Inc.; WO99/18856), 20% sucrose (Sigma), 20 mM DTT (Sigma), 200 mM NaCl (Sigma), 40 mM Na PIPES buffer pH 7.2 (Sigma), and 500 μg/mL lysolecithin (Calbiochem) was added. The samples were mixed by agitation and incubated at room temperature. Using a fluorescent plate reader (Model SpectraMax Gemini, Molecular Devices), an initial reading (T=0) was made approximately 1–2 min after addition of the substrate solution, employing excitation at 485 nm and emission at 530 nm, to determine the background fluorescence of the control sample. After the 3 h incubation, the samples were read for fluorescence as above (T=3 h).
The Relative Fluorescence Unit values (RFU) were used to calculate the sample readings as follows: RFU(T=3h)−Control RFU(T=0)=Net RFU(T=3h)
The activity of caspase cascade activation was determined by the ratio of the net RFU value for 3-(3-amino-4-chloro-phenyl)-5-(3-chlorothiophen-2-yl)-[1,2,4]-oxadiazole or other test compound to that of control samples. The EC50 (nM) was determined by a sigmoidal dose-response calculation (Prism 2.0, GraphPad Software Inc.).

pEC50: −log10 of the molar value.

The record followed here is patent US7144876B2, “3,5-Disubstituted-[1,2,4]-oxadiazoles and analogs as activators of caspases and inducers of apoptosis and the use thereof” (Cytovia, Inc., priority 2002, dated 2006).

For the molecule `Nc1cc(-c2noc(-c3sccc3Cl)n2)ccc1Cl` [Example 1, 3-(3-Amino-4-chloro-phenyl)-5-(3-chlorothiophen-2-yl)-[1,2,4]-oxadiazole], the GI50 – broadly, the concentration giving 50% growth inhibition – in assay [1] turned out to be 7 µM. The molecule further returned a GI50 in assay [2] of 0.894 µM. Also, in assay [3], the pEC50 (usually the EC50 on a negative log10 scale, so that one unit is a factor of ten) is 5.70 and the “Caspase activity (Ratio)” value is given as 11.9.
Regarding `CN(C)c1cc(-c2noc(-c3sccc3Cl)n2)ccc1Cl` [Example 2, 5-(3-Chlorothiophen-2-yl)-3-(3-dimethylamino-4-chloro-phenyl)-[1,2,4]-oxadiazole], in assay [1], the GI50 is 5 µM. In assay [2], this molecule yielded a GI50 of 0.36 µM. In addition, in assay [3], the pEC50 is 5.82 and the “Caspase activity (Ratio)” value is on record as 15.1.
For `CN(C)c1cc(-c2noc(-c3occc3Br)n2)ccc1Cl` [Example 4, 5-(3-Bromofuran-2-yl)-3-(3-dimethylamino-4-chloro-phenyl)-[1,2,4]-oxadiazole] the same measures were 0.21 µM, 0.415 µM, 5.73 and 11.9.
Consider `N#Cc1cc(-c2noc(-c3sccc3Cl)n2)ccc1Cl` [Example 7, 5-(3-Chlorothiophen-2-yl)-3-(4-chloro-3-cyano-phenyl)-[1,2,4]-oxadiazole], for which, in assay [3], the pEC50 was 5.40 and the “Caspase activity (Ratio)” value is 3.4.
`Fc1cc(-c2noc(-c3sccc3Cl)n2)ccc1Cl` [Example 9, 5-(3-Chlorothiophen-2-yl)-3-(4-chloro-3-fluoro-phenyl)-[1,2,4]-oxadiazole] returned a GI50 in assay [1] of 0.899 µM. The molecule also yielded a GI50 in assay [2] of 0.514 µM. In assay [3], the pEC50 was 5.49 and the “Caspase activity (Ratio)” value was found to be 9.0.
On to `O=[N+]([O-])c1cc(-c2noc(-c3sccc3Cl)n2)ccc1Cl` [Example 10, 5-(3-Chlorothiophen-2-yl)-3-(4-chloro-3-nitro-phenyl)-[1,2,4]-oxadiazole], for which, in assay [3], the pEC50 was 5.43 and the “Caspase activity (Ratio)” value is listed as 9.9.
As for `Clc1ccc(C=Cc2noc(-c3sccc3Cl)n2)cc1` [Example 13, 3-[2-(4-Chloro-phenyl)-vinyl]-5-(3-chlorothiophen-2-yl)-[1,2,4]-oxadiazole], in assay [3], the pEC50 is 5.26 and the “Caspase activity (Ratio)” value is listed as 4.4.
For `Clc1ccsc1-c1nc(N2CCCCC2)no1` [Example 18, 5-(3-Chlorothiophen-2-yl)-3-(1-piperidinyl)-[1,2,4]-oxadiazole] the same measures were 5.30 and 2.8.
Regarding `CC1CCN(c2noc(-c3sccc3Cl)n2)CC1` [Example 22, 5-(3-Chlorothiophen-2-yl)-3-(4-methylpiperidin-1-yl)-[1,2,4]oxadiazole], in assay [3], the pEC50 was 5.48 and the “Caspase activity (Ratio)” value was determined as 5.4.
Turning to `Cc1cc(Cl)ccc1-c1noc(-c2sccc2Cl)n1` [Example 43, 3-(4-Chloro-2-methyl-phenyl)-5-(3-chlorothiophen-2-yl)-[1,2,4]oxadiazole], in assay [3], the pEC50 is 6.09 and the “Caspase activity (Ratio)” value is on record as 7.9.
Turning to `Cc1cccnc1-c1noc(-c2sccc2Cl)n1` [Example 47, 5-(3-Chlorothiophen-2-yl)-3-(3-methyl-pyridin-2-yl)-[1,2,4]oxadiazole], in assay [3], the pEC50 is 5.61 and the “Caspase activity (Ratio)” value is 4.5.
Consider `Cc1cc(Cl)ccc1-c1noc(-c2occc2Br)n1` [Example 49, 5-(3-Bromofuran-2-yl)-3-(4-chloro-2-methyl-phenyl)-[1,2,4]oxadiazole], for which, in assay [3], the pEC50 was 6.00 and the “Caspase activity (Ratio)” value worked out at 11.9.
For `Cc1cc(Cl)cnc1-c1noc(-c2occc2Br)n1` [Example 50, 5-(3-Bromofuran-2-yl)-3-(5-chloro-3-methyl-pyridin-2-yl)-[1,2,4]oxadiazole] the same measures were 6.10 and 5.9.
As for `Cc1cccnc1-c1noc(-c2occc2Br)n1` [Example 57, 5-(3-Bromofuran-2-yl)-3-(3-methyl-pyridin-2-yl)-[1,2,4]oxadiazole], in assay [3], the pEC50 is 6.07 and the “Caspase activity (Ratio)” value stood at 6.4.
